# Test results: ChEMBL document CHEMBL3286119, “Biarylmethoxy Nicotinamides As Novel and Specific Inhibitors of Mycobacterium tuberculosis” (ACS Med Chem Lett, 2014)
# The source made the active and inactive calls. The rule behind the calls is not given here.
# Experiments:
# [1] = test system: Mycobacterium tuberculosis; experiment: Antimicrobial activity against Mycobacterium tuberculosis H37Rv ATCC 27294 after 5 days by microdilution method; type: functional; details: H37Rv ATCC 27294, 120 h
# [2] = Cytotoxicity against human THP1 cells after 24 hrs by resazurin assay; type: cell-based, THP-1; details: read-out: MIC
# Haemophilus influenzae [3] = experiment: Antimicrobial activity against Haemophilus influenzae ARC446 after 5 days by microdilution method; type: functional; details: ARC446, 120 h
# Pseudomonas aeruginosa [4] = experiment: Antimicrobial activity against Pseudomonas aeruginosa ARC545 after 5 days by microdilution method; type: functional; details: ARC545, 120 h
# [5] = Lipophilicity, log D of the compound; type: physicochemical; details: octanol/water
# Escherichia coli [6] = experiment: Antimicrobial activity against Escherichia coli ARC523 after 5 days by microdilution method; type: functional; details: ARC523, 120 h
# Escherichia coli [7] = experiment: Antimicrobial activity against Escherichia coli ARC524 after 5 days by microdilution method; type: functional; details: ARC524, 120 h
# Pseudomonas aeruginosa [8] = experiment: Antimicrobial activity against Pseudomonas aeruginosa ARC546 after 5 days by microdilution method; type: functional; details: ARC546, 120 h
# Streptococcus pneumoniae = experiment: Antimicrobial activity against Streptococcus pneumoniae ARC548 after 5 days by microdilution method; type: functional; details: ARC548, 120 h
# Klebsiella pneumoniae = experiment: Antimicrobial activity against Klebsiella pneumoniae ARC1865 after 5 days by microdilution method; type: functional; details: ARC1865, 120 h
# Haemophilus influenzae [9] = experiment: Antimicrobial activity against Haemophilus influenzae ARC158 after 5 days by microdilution method; type: functional; details: ARC158, 120 h
# Candida albicans = experiment: Antimicrobial activity against Candida albicans ARC526 after 5 days by microdilution method; type: functional; details: ARC526, 120 h
# Streptococcus pyogenes = experiment: Antimicrobial activity against Streptococcus pyogenes after 5 days by microdilution method; type: functional; details: 120 h
# Staphylococcus aureus = experiment: Antimicrobial activity against Staphylococcus aureus ARC517 after 5 days by microdilution method; type: functional; details: ARC517, 120 h
# [10] = test system: Mycobacterium tuberculosis; experiment: Antimicrobial activity against Mycobacterium tuberculosis DKU 76 clinical isolate after 2 to 3 weeks; type: functional, organism-based
# [11] = Selectivity index, ratio of MIC for human THP1 cells to MIC for Mycobacterium tuberculosis H37Rv ATCC 27294; type: toxicity, cell-based, THP-1; details: read-out: Selectivity Index
# [12] = test system: Mycobacterium tuberculosis; experiment: Antimicrobial activity against Mycobacterium tuberculosis ATCC 25618 after 2 to 3 weeks; type: functional, organism-based
# [13] = test system: Mycobacterium tuberculosis; experiment: Antimicrobial activity against Mycobacterium tuberculosis DKU211 clinical isolate after 2 to 3 weeks; type: functional, organism-based
# Cytochrome P450 2C9 = Cytochrome P450 2C9 (Homo sapiens, UniProt P11712); experiment: Inhibition of CYP2C9 (unknown origin); type: ADME
# Cytochrome P450 2C9, sequence (P11712 whole entry): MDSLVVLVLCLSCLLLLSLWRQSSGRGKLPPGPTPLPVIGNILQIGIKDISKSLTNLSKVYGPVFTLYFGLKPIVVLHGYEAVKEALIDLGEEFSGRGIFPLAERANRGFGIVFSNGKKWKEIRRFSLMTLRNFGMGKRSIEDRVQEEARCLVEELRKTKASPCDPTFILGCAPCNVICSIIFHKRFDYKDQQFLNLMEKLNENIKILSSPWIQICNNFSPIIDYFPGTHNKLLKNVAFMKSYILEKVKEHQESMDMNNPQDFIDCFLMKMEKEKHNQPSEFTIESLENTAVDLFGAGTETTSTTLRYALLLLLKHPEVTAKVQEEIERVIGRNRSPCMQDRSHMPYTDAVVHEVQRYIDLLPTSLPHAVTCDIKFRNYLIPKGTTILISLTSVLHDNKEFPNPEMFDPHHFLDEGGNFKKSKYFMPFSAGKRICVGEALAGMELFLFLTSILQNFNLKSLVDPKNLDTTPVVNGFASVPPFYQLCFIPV
# [14] = test system: Mycobacterium tuberculosis; experiment: Antimicrobial activity against Mycobacterium tuberculosis JALMA clinical isolate after 2 to 3 weeks; type: functional, organism-based
# [15] = test system: Mycobacterium tuberculosis; experiment: Antimicrobial activity against Mycobacterium tuberculosis 97A clinical isolate after 2 to 3 weeks; type: functional, organism-based
# [16] = test system: Mycobacterium tuberculosis; experiment: Antimicrobial activity against Mycobacterium tuberculosis DKU220 clinical isolate after 2 to 3 weeks; type: functional, organism-based
# [17] = test system: Mycobacterium tuberculosis; experiment: Antimicrobial activity against Mycobacterium tuberculosis Erdman after 2 to 3 weeks; type: functional, organism-based
# [18] = test system: Mycobacterium tuberculosis; experiment: Antimicrobial activity against Mycobacterium tuberculosis Harlingen after 2 to 3 weeks; type: functional, organism-based
# [19] = test system: Mycobacterium tuberculosis; experiment: Antimicrobial activity against ofloxacin Mycobacterium tuberculosis 12119 after 2 to 3 weeks; type: functional, organism-based
# [20] = test system: Mycobacterium tuberculosis; experiment: Antimicrobial activity against Mycobacterium tuberculosis Beijing after 2 to 3 weeks; type: functional, organism-based
# [21] = test system: Mycobacterium tuberculosis; experiment: Antimicrobial activity against Mycobacterium tuberculosis ATCC 35811 after 2 to 3 weeks; type: functional, organism-based
# Cytochrome P450 3A4 = Cytochrome P450 3A4 (Homo sapiens, UniProt P08684); experiment: Inhibition of CYP3A4 (unknown origin); type: ADME
# Cytochrome P450 3A4, sequence (P08684 whole entry): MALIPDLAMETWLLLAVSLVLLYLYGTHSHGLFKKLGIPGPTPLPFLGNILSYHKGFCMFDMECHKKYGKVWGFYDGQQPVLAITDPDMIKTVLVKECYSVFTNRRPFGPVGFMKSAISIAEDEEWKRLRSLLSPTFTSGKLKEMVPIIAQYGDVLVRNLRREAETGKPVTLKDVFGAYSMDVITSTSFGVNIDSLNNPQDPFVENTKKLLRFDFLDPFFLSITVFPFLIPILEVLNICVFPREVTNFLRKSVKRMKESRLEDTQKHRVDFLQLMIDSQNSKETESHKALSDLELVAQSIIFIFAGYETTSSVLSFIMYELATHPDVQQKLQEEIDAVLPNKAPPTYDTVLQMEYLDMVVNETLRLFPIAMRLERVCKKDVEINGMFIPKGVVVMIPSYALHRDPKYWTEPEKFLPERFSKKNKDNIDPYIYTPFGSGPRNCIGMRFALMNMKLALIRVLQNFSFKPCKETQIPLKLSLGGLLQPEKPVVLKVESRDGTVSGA
# [22] = Fraction unbound in human plasma; type: ADME, cell-free
# Cytochrome P450 2D6 = Cytochrome P450 2D6 (Homo sapiens, UniProt P10635); experiment: Inhibition of CYP2D6 (unknown origin); type: ADME
# Cytochrome P450 2D6, sequence (P10635 whole entry): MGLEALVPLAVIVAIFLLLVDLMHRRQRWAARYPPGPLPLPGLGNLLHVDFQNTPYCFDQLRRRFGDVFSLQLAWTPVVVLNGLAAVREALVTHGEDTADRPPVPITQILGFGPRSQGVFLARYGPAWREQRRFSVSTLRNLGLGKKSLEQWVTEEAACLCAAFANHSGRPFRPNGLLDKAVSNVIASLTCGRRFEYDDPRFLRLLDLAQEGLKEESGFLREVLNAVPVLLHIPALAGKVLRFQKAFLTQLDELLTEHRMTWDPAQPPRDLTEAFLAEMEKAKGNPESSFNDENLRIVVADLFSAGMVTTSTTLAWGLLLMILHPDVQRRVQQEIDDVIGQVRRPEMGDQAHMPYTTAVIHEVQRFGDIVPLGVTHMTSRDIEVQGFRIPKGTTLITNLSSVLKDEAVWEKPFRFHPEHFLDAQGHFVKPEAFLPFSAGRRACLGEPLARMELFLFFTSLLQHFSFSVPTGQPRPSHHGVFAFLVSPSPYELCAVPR
# Cytochrome P450 1A2 = molecular target: T1, Cytochrome P450 1A2 (Homo sapiens, UniProt P05177); experiment: Inhibition of CYP1A2 (unknown origin); type: ADME
# T1 sequence (P05177 whole entry): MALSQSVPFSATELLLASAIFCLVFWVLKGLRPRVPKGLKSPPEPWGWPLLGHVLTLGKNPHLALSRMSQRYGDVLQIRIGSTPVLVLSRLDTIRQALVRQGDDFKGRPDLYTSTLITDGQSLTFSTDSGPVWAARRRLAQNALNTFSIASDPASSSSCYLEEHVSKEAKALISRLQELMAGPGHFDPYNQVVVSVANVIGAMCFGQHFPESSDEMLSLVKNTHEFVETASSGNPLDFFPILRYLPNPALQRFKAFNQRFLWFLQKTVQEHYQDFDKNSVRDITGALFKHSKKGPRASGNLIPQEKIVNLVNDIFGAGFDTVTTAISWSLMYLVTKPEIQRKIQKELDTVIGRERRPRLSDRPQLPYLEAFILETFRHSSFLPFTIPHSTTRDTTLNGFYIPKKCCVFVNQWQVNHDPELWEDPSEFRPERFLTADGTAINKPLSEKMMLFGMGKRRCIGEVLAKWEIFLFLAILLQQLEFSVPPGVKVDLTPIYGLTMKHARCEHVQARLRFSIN
smiles,measurement,setting,value
CNS(=O)(=O)c1cccnc1OCc1ccc(-c2ccc(OCCOC)cc2C)cn1,MIC,[1],50 µM
same,MCC at 24 h,[2],> 50 µM
Cc1cc(OC[C@@H]2CCCO2)ccc1-c1ccc(COc2ncccc2C(N)=O)nc1,MIC,[1],1.2 µM
same,MCC at 24 h,[2],> 50 µM
COc1ccc(-c2ccc(COc3ncccc3C(N)=O)nc2)c(F)c1,MIC,[1],16.9 µM
same,MCC at 24 h,[2],> 50 µM
Cc1cc(OC[C@H]2CCCO2)ccc1-c1ccc(COc2ncccc2C(N)=O)nc1,MIC,[1],4.7 µM
same,MCC at 24 h,[2],> 50 µM
NC(=O)c1cccnc1OCc1ccc(-c2ccc(OCC3CCCO3)cc2Cl)cn1 (configuration not stated),MIC80,Haemophilus influenzae [3],> 60 µM
same,MIC,Pseudomonas aeruginosa [4],> 60 µM
same,logD,[5],2.8
same,MIC80,Escherichia coli [6],> 60 µM
same,MIC80,Escherichia coli [7],> 60 µM
same,MIC80,Pseudomonas aeruginosa [8],> 60 µM
same,MIC,[1],1.1 µM
same,MIC80,Streptococcus pneumoniae,> 60 µM
same,MCC at 24 h,[2],> 50 µM
same,MIC80,Klebsiella pneumoniae,> 60 µM
same,MIC80,Haemophilus influenzae [9],> 60 µM
same,MIC80,Candida albicans,> 60 µM
same,MIC80,Streptococcus pyogenes,> 60 µM
same,MIC80,Staphylococcus aureus,> 60 µM
COCCOc1ccc(-c2ccc(COc3ncccc3C(=O)N3CCC(O)C3)nc2)c(C)c1 (configuration not stated),MIC,[1],> 75 µM
same,MCC at 24 h,[2],> 50 µM
CNC(=O)c1cccnc1OCc1ccc(-c2ccc(OCCOC)cc2C)cn1,MIC,[1],1.2 µM
same,MCC at 24 h,[2],> 50 µM
COCCOc1ccc(-c2ccc(COc3nccnc3C(N)=O)nc2)c(C)c1,MIC,[1],40.5 µM
same,MCC at 24 h,[2],> 50 µM
COCCOc1ccc(-c2cnc(COc3ncccc3C(N)=O)nc2)c(Cl)c1,MIC,[1],0.47 µM
same,MCC at 24 h,[2],> 250 µM
NC(=O)c1cccnc1OCc1ccc(-c2ccccc2)cn1,MIC,[1],> 50 µM
CC(C)OCCOc1ccc(-c2cnc(COc3ncccc3C(N)=O)nc2)c(Cl)c1,Activity,[10],Active
same,selectivity ratio,[11],> 2500
same,Activity,[12],Active
same,MIC80,Haemophilus influenzae [3],> 60 µM
same,MIC,Pseudomonas aeruginosa [4],> 60 µM
same,logD,[5],2.8
same,MIC80,Escherichia coli [6],> 60 µM
same,Activity,[13],Active
same,MIC80,Escherichia coli [7],> 60 µM
same,MIC80,Pseudomonas aeruginosa [8],> 60 µM
same,MIC,[1],0.12 µM
same,MIC80,Streptococcus pneumoniae,> 60 µM
same,MCC at 24 h,[2],> 250 µM
same,MIC80,Klebsiella pneumoniae,> 60 µM
same,IC50,Cytochrome P450 2C9,19 µM
same,Activity,[14],Active
same,Activity,[15],Active
same,Activity,[16],Active
same,Activity,[17],Active
same,Activity,[18],Active
same,MIC80,Haemophilus influenzae [9],> 60 µM
same,MIC80,Candida albicans,> 60 µM
same,MIC80,Streptococcus pyogenes,> 60 µM
same,Activity,[19],Active
same,Activity,[20],Active
same,Activity,[21],Active
same,MIC80,Staphylococcus aureus,> 60 µM
COc1ccc(-c2ccc(COc3ncccc3C(N)=O)nc2)c(C(F)(F)F)c1,MIC,[1],39.7 µM
COCCOc1ccc(-c2ccc(COc3ncccc3C(N)=O)nc2)c(C)c1,Activity,[10],Active
same,Activity,[12],Active
same,logD,[5],2.8
same,Activity,[13],Active
same,inhibition (INH),Cytochrome P450 3A4,Not Active
same,MIC,[1],0.6 µM
same,fraction unbound,[22],0.042
same,inhibition (INH),Cytochrome P450 2D6,Not Active
same,MCC at 24 h,[2],> 50 µM
same,Activity,[14],Active
same,Activity,[15],Active
same,Activity,[16],Active
same,Activity,[17],Active
same,Activity,[18],Active
same,Activity,[19],Active
same,inhibition (INH),Cytochrome P450 1A2,Not Active
same,Activity,[20],Active
same,Activity,[21],Active
